The test system of test [1] is tracheal preparations (guinea pig trachea). The experiment in a line: in vitro tracheal preparations of the guinea pig, relaxation under isoproterenol.
Test [2] has as its system β-adrenoceptor (guinea pig atrium). The experiment in a line: spontaneously beating guinea pig atrium test: inhibition of the positive chronotropic isoprenaline effect. Conditions: β-adrenoceptor blocking activity, vs isoprenaline.
[3] abbreviates: at concentrations as high as 1×10^-4 M.

With `COCCc1ccc(OCC(O)CNCCNC(=O)C2CCCOC2)cc1` (centres unmarked) [Example 1, 1-[4-(2-Methoxyethyl)phenoxy]-3-[2-(tetrahydropyran-3-ylcarbonylamino)ethylamino]-2-propanol], the “effect in the trachea” value in test [1] (at concentrations as high as 2×10^-5 M) is “no effect”.
Turning to `COCCc1ccc(OCC(O)CNCCNC(=O)C2CCOCC2)cc1` (centres unmarked) [Example 3], the “Guinea pig atrium test Effective dose (molar concentration)” value (“Guinea pig atrium test Effective dose” below) in test [2] is 200 nM.
As for `COCCOc1ccc(OCC(O)CNCCNC(=O)C2CCOCC2)cc1` (centres unmarked) [Example 6], the “Guinea pig atrium test Effective dose” value in test [2] turned out to be 400 nM. The “effect in the trachea” value in test [1] (setting [3]) was “no effect”.
On to `COCCc1ccc(OCC(O)CNCCNC(=O)C2CCOCC2)c(C#N)c1` (centres unmarked) [Example 7], for which the “Guinea pig atrium test Effective dose” value in test [2] is 80 nM.
Still for that read-out and setting: as for `COCCc1ccc(OCC(O)CNCCNC(=O)C2CCCOC2)c(Br)c1` (centres unmarked) [Example 8], the figure is 80 nM; as for `COCCc1ccc(OCC(O)CNCCNC(=O)C2CCCOC2)c(C#N)c1` (centres unmarked) [Example 9], 300 nM.
In the case of `O=C(NCCNCC(O)COc1ccc(OCCOCC2CC2)cc1)C1CCCOC1` (centres unmarked) [Example 10], the “effect in the trachea” value in test [1] (setting [3]) is reported as “no effect”.
Consider `O=C(NCCNCC(O)COc1ccc(OCCOCC2CC2)cc1)C1CCOCC1` (centres unmarked) [Example 11], for which the “Guinea pig atrium test Effective dose” value in test [2] was 200 nM. Also, in test [1] (setting [3]), the “effect in the trachea” value was “no effect”.
Consider `O=C(NCCCNCC(O)COc1ccc(OCCOCC2CC2)cc1)C1CCOCC1` (centres unmarked) [Example 12], for which the “Guinea pig atrium test Effective dose” value in test [2] came out at 3000 nM.

Source of the values: patent US4661513A, “3-aminopropoxyphenyl derivatives, their preparation and pharmaceutical compositions containing them” (Louis; William John, priority 1982, dated 1987).
